Measurements reported in PMC11435058, “Synthesis of New Thiazole-Privileged Chalcones as Tubulin Polymerization Inhibitors with Potential Anticancer Activities” (Pharmaceuticals, 2024).

Legend:
MDA-MB-468 = assay: NCI-60 anticancer screen (SRB; single dose and five doses); assay type: cell-based, human; conditions: for activity at 10 µM: 48 h, MDA-MB-468, dose of 10 μM, read-out: Growth Percentage
Summary of the method: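 Readout was sulforhodamine B staining, read spectrophotometrically as percent growth against untreated controls. This followed a 48 h exposure to one 10μM dose across roughly 60 human tumor lines of the NCI screen.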

SNB-19 = assay: cells; conditions: Homo sapiens; for activity at 10 µM: SNB-19, 48 h, read-out: Growth Percentage
OVCAR-3 = assay: cells; conditions: Homo sapiens; for activity at 10 µM: OVCAR-3, 48 h, read-out: Growth Percentage
EKVX = assay: NCI-60 anticancer screen (SRB; single dose and five doses); conditions: Homo sapiens; for activity at 10 µM: 48 h, read-out: Growth Percentage
NCI-H23 = assay: as above; conditions: Homo sapiens; for activity at 10 µM: NCI-H23, 48 h, read-out: Growth Percentage
NCI-H460 = assay: as above; conditions: Homo sapiens; for activity at 10 µM: NCI-H460, 48 h, read-out: Growth Percentage
NCI-H522 = assay: as above; conditions: Homo sapiens; for activity at 10 µM: NCI-H522, 48 h, read-out: Growth Percentage
HCC-2998 = assay: as above; conditions: for activity at 10 µM: HCC 2998, 48 h, read-out: Growth Percentage
HCT-116 = assay: as above; conditions: Homo sapiens; for activity at 10 µM: HCT-116, 48 h, read-out: Growth Percentage
SW-620 = assay: as above; conditions: Homo sapiens; for activity at 10 µM: SW-620, 48 h, read-out: Growth Percentage
SF-539 = assay: as above; conditions: Homo sapiens; for activity at 10 µM: SF-539, 48 h, read-out: Growth Percentage
SNB-75 = assay: as above
U251 = assay: as above; conditions: Homo sapiens; for activity at 10 µM: U-251, 48 h, read-out: Growth Percentage
M14 = assay: as above; conditions: Homo sapiens; for activity at 10 µM: M14, 48 h, read-out: Growth Percentage
MDA-MB-435 = assay: as above; conditions: Homo sapiens; for activity at 10 µM: MDA-MB-435, 48 h, read-out: Growth Percentage
SK-MEL-28 = assay: as above; conditions: Homo sapiens; for activity at 10 µM: SK-MEL-28, 48 h, read-out: Growth Percentage
OVCAR-4 = assay: as above; conditions: Homo sapiens; for activity at 10 µM: OVCAR-4, 48 h, read-out: Growth Percentage
OVCAR-8 = assay: as above; conditions: Homo sapiens; for activity at 10 µM: OVCAR-8, 48 h, read-out: Growth Percentage
SK-OV-3 = assay: as above; conditions: Homo sapiens; for activity at 10 µM: SK-OV-3, 48 h, read-out: Growth Percentage
786-0 = assay: as above; conditions: Homo sapiens; for activity at 10 µM: 786-0, 48 h, read-out: Growth Percentage
A498 = assay: as above; conditions: Homo sapiens; for activity at 10 µM: A498, 48 h, read-out: Growth Percentage, A498, dose of 10 μM
ACHN = assay: as above; conditions: Homo sapiens; for activity at 10 µM: 48 h, read-out: Growth Percentage
SN12C = assay: as above; conditions: Homo sapiens; for activity at 10 µM: 48 h, read-out: Growth Percentage
TK-10 = assay: as above; conditions: Homo sapiens; for activity at 10 µM: TK-10, 48 h, read-out: Growth Percentage
UO-31 = assay: as above; conditions: Homo sapiens

## COc1cc(/C=C/C(=O)c2sc(=S)[nH]c2C)cc(OC)c1OC [2p, (E)-1-(4-Methyl-2-Thioxo-2,3-Dihydrothiazol-5-yl)-3-(3,4,5-Trimethoxyphenyl)Prop-2-En-1-One]
MDA-MB-468; Homo sapiens
  activity at 10 µM: 3.79%
MDA-MB-468; Homo sapiens, MDA-MB-468, MDA-MB-468, Breast Cancer, five dose
  IC50: 5.75 µM
MDA-MB-468; Homo sapiens, MDA-MB-468, Breast Cancer, five dose
  GI50: 1.55 µM
MDA-MB-468; Homo sapiens, MDA-MB-468, Breast Cancer, five dose, read-out: LC50 (the source's name)
  CC50: 17.8 µM
MDA-MB-468; MDA-MB-468, Breast Cancer, five dose
  TGI: 4.47 µM
SNB-19; SNB-19
  GI50: 5.01 µM
  IC50: 13.2 µM
SNB-19
  activity at 10 µM: 19.6%
SNB-19; SNB-19, read-out: LC50
  CC50: 43.6 µM
SNB-19; SNB-19, read-out: TGI
  IC (TGI): 17.8 µM
OVCAR-3; OVCAR-3
  GI50: 2.45 µM
OVCAR-3
  activity at 10 µM: -25.2%
OVCAR-3; OVCAR-3, five-dose, Ovarian Cancer OVCAR-3
  IC50: 5.25 µM
OVCAR-3; OVCAR-3, read-out: LC50
  CC50: 25.7 µM
OVCAR-3; OVCAR-3, read-out: TGI
  IC (TGI): 6.92 µM
EKVX
  GI50: 4.07 µM
  IC50: 11 µM
  activity at 10 µM: 23.4%
EKVX; read-out: LC50
  CC50: > 100 µM
EKVX; read-out: TGI
  IC (TGI): 22.9 µM
NCI-H23; NCI-H23
  GI50: 2.95 µM
  IC50: 5.25 µM
NCI-H23
  activity at 10 µM: 7.27%
NCI-H23; NCI-H23, read-out: LC50
  CC50: 44.7 µM
NCI-H23; NCI-H23, read-out: TGI
  IC (TGI): 10.5 µM
NCI-H460; NCI-H460
  GI50: 2.14 µM
  IC50: 3.31 µM
NCI-H460
  activity at 10 µM: -1.34%
NCI-H460; NCI-H460, read-out: LC50
  CC50: 44.7 µM
NCI-H460; NCI-H460, read-out: TGI
  IC (TGI): 5.62 µM
NCI-H522; NCI-H522
  GI50: 3.16 µM
  IC50: 7.59 µM
NCI-H522
  activity at 10 µM: 16.3%
NCI-H522; NCI-H522, read-out: LC50
  CC50: 40.7 µM
NCI-H522; NCI-H522, read-out: TGI
  IC (TGI): 12.3 µM
HCC-2998; Homo sapiens, HCC 2998
  GI50: 5.13 µM
  IC50: 11.8 µM
HCC-2998; Homo sapiens
  activity at 10 µM: 19%
HCC-2998; Homo sapiens, HCC 2998, read-out: LC50
  CC50: 44.7 µM
HCC-2998; five-dose, Colon Cancer HCC-2998
  TGI: 17.38 µM
HCT-116; HCT-116
  GI50: 3.16 µM
  IC50: 3.63 µM
HCT-116
  activity at 10 µM: 6.81%
HCT-116; HCT-116, read-out: LC50
  CC50: 69.2 µM
HCT-116; HCT-116, read-out: TGI
  IC (TGI): 14.4 µM
SW-620; SW-620
  GI50: 2.57 µM
  IC50: 3.72 µM
SW-620
  activity at 10 µM: 6.92%
SW-620; SW-620, read-out: LC50
  CC50: 46.8 µM
SW-620; SW-620, read-out: TGI
  IC (TGI): 9.77 µM
SF-539; SF-539
  GI50: 2.19 µM
  IC50: 4.47 µM
SF-539
  activity at 10 µM: -13.9%
SF-539; SF-539, read-out: TGI
  IC (TGI): 5.5 µM
SNB-75; Homo sapiens, SNB-75
  GI50: 2.19 µM
  IC50: 7.59 µM
SNB-75; Homo sapiens, SNB-75, read-out: LC50
  CC50: 28.8 µM
SNB-75; five-dose, CNS Cancer SNB-75
  TGI: 6.17 µM
U251; U-251
  GI50: 3.02 µM
  IC50: 4.17 µM
U251
  activity at 10 µM: 15%
U251; U-251, read-out: LC50
  CC50: 43.6 µM
U251; U-251, read-out: TGI
  IC (TGI): 12 µM
M14; M14
  GI50: 3.24 µM
  IC50: 5.13 µM
M14
  activity at 10 µM: 15.4%
M14; M14, read-out: TGI
  IC (TGI): 13.2 µM
MDA-MB-435; MDA-MB-435
  GI50: 2.57 µM
  IC50: 4.47 µM
MDA-MB-435
  activity at 10 µM: 11%
MDA-MB-435; MDA-MB-435, read-out: LC50
  CC50: > 100 µM
MDA-MB-435; MDA-MB-435, read-out: TGI
  IC (TGI): 10.5 µM
SK-MEL-28; SK-MEL-28
  GI50: 4.07 µM
  IC50: 9.12 µM
SK-MEL-28
  activity at 10 µM: 24.2%
SK-MEL-28; SK-MEL-28, read-out: LC50
  CC50: 57.5 µM
SK-MEL-28; SK-MEL-28, read-out: TGI
  IC (TGI): 17.4 µM
OVCAR-4; OVCAR-4
  GI50: 2.82 µM
  IC50: 6.61 µM
OVCAR-4
  activity at 10 µM: 15.6%
OVCAR-4; OVCAR-4, read-out: LC50
  CC50: 51.3 µM
OVCAR-4; OVCAR-4, read-out: TGI
  IC (TGI): 12.6 µM
OVCAR-8; OVCAR-8
  GI50: 2.14 µM
  IC50: 3.55 µM
OVCAR-8
  activity at 10 µM: 4.32%
OVCAR-8; OVCAR-8, read-out: LC50
  CC50: 45.7 µM
OVCAR-8; OVCAR-8, read-out: TGI
  IC (TGI): 5.5 µM
SK-OV-3; SK-OV-3
  GI50: 7.41 µM
  IC50: 46.8 µM
SK-OV-3
  activity at 10 µM: 31.2%
SK-OV-3; SK-OV-3, read-out: LC50
  CC50: > 100 µM
SK-OV-3; SK-OV-3, read-out: TGI
  IC (TGI): > 100 µM
786-0; 786-0
  GI50: 4.57 µM
  IC50: 6.61 µM
786-0
  activity at 10 µM: 21.1%
786-0; 786-0, read-out: LC50
  CC50: 97.7 µM
786-0; 786-0, read-out: TGI
  IC (TGI): 20.9 µM
A498; A498
  GI50: 11.5 µM
  IC50: 43.6 µM
A498
  activity at 10 µM: 96.5%
A498; A498, read-out: LC50
  CC50: > 100 µM
A498; A498, read-out: TGI
  IC (TGI): 34.7 µM
ACHN
  GI50: 3.89 µM
  IC50: 6.46 µM
  activity at 10 µM: 19.6%
ACHN; read-out: LC50
  CC50: 55 µM
ACHN; read-out: TGI
  IC (TGI): 16.6 µM
SN12C
  GI50: 2.29 µM
  IC50: 3.89 µM
  activity at 10 µM: 7.3%
SN12C; read-out: LC50
  CC50: 46.8 µM
SN12C; read-out: TGI
  IC (TGI): 9.55 µM
TK-10; TK-10
  GI50: 5.01 µM
  IC50: 16.2 µM
TK-10
  activity at 10 µM: 53%
TK-10; TK-10, read-out: LC50
  CC50: 47.9 µM
TK-10; TK-10, read-out: TGI
  IC (TGI): 17.8 µM
UO-31; UO-31
  GI50: 3.02 µM
  IC50: 7.76 µM
UO-31; UO-31, read-out: TGI
  IC (TGI): 15.5 µM

## COc1ccc(/C=C/C(=O)c2sc(=S)[nH]c2C)cc1OC [2o, (E)-3-(3,4-Dimethoxyphenyl)-1-(4-Methyl-2-Thioxo-2,3-Dihydrothiazol-5-yl)Prop-2-En-1-One]
MDA-MB-468; Homo sapiens
  activity at 10 µM: -0.42%
SNB-19
  activity at 10 µM: 61.9%
OVCAR-3
  activity at 10 µM: 3.22%
EKVX
  activity at 10 µM: 54.2%
NCI-H23
  activity at 10 µM: 65.1%
NCI-H460
  activity at 10 µM: 40%
NCI-H522
  activity at 10 µM: 56.8%
HCC-2998; Homo sapiens
  activity at 10 µM: 41.7%
HCT-116
  activity at 10 µM: 34.5%
SW-620
  activity at 10 µM: 34.9%
SF-539
  activity at 10 µM: 29.8%
SNB-75; Homo sapiens, SNB-75, 48 h, read-out: Growth Percentage
  activity at 10 µM: 58.1%
U251
  activity at 10 µM: 33.7%
M14
  activity at 10 µM: 82.2%
MDA-MB-435
  activity at 10 µM: 38.9%
SK-MEL-28
  activity at 10 µM: 83.2%
OVCAR-4
  activity at 10 µM: 47.6%
OVCAR-8
  activity at 10 µM: 34.3%
SK-OV-3
  activity at 10 µM: 76.9%
786-0
  activity at 10 µM: 60%
A498
  activity at 10 µM: 126%
ACHN
  activity at 10 µM: 64.9%
SN12C
  activity at 10 µM: 45.4%
TK-10
  activity at 10 µM: 75.4%
UO-31; UO-31, 48 h, read-out: Growth Percentage
  activity at 10 µM: 49.2%
